Laboratory results as given in patent US20040157811A1, “Inhibition of the growth factor dependency of tumor cells” (priority 2000, published 2004).
“Also recorded” adds a separate entry of the source.

How the values were obtained:
[1] = tested on: breast carcinoma cell line T47D; assay: Growth studies, antiproliferative action on T47D cells (crystal violet); type: cell-based, human; settings: 0.1 nM estradiol, 6 days, increasing concentrations, FIG. 1
Experimental: The tumor cells were cultivated at 5000 cells/well in 96-well plates for 6 days in RPMI medium plus 10% bovine serum, 200 nM of insulin and 0.1 nM of estradiol in the presence of the compounds that are indicated in each case, and the growth was determined by staining with crystal violet.
2. […] T47D cells were cultivated in the presence (upper cross-hatching) or absence (lower cross-hatching) of 0.1 nM of E2 plus increasing concentrations of compound A (▴), onapristone (▪), ZK191703 (●) or 4-OH-Tam (♦).

[2] = tested on: binding of EGF to T47D cells; assay: Binding of 125I-EGF to tumor cells (R5020-pretreated T47D cells); type: cell-based, human; settings: for block of the R5020-caused increase of 125I-EGF binding to intact T47D cells: T47D cells treated 48 hours with 2 or 20 nM R5020 plus test substance, FIG. 5
Experimental: R5020-Pretreated T47D cells were incubated for 2 hours with ^125I-EGF at 4° C. The unspecific binding was always less than 10% of the total binding.
In FIG. 4, a Scatchard analysis of the ^125I-EGF binding to T47D cells is shown. The cells were cultivated for 48 hours in the presence of 20 nM of R5020 with or without 20 nM of compound A and then washed. Then, the EGF-binding over a concentration range of 0.25 to 150 ng/ml of EGF was determined by incubation for 2 hours at 4° C. The insertions show the amount of bonded ligands relative to the logarithm of the free ligand concentration.
In FIG. 5, the binding of ^125I-EGF to intact T47D cells is shown. For this purpose, the cells were treated for 48 hours with 2 or 20 nM of R5020 plus compound A or onapristone or compound A alone.

[3] = target: T1, progesterone receptor (PR) (Homo sapiens, UniProt P06401); assay: Transactivation assay (MTV-LUC, luciferase) in T47D cells; type: cell-based; settings: T47D cells transiently transfected with MTV-LUC, treated with R5020 plus increasing concentrations, 24 hours, FIG. 3
T1 construct: T47D cells were transiently transfixed with MTV-LUC; endogenous in cells; host or cells: T47D human breast carcinoma cells
T1 sequence (P06401 1-933): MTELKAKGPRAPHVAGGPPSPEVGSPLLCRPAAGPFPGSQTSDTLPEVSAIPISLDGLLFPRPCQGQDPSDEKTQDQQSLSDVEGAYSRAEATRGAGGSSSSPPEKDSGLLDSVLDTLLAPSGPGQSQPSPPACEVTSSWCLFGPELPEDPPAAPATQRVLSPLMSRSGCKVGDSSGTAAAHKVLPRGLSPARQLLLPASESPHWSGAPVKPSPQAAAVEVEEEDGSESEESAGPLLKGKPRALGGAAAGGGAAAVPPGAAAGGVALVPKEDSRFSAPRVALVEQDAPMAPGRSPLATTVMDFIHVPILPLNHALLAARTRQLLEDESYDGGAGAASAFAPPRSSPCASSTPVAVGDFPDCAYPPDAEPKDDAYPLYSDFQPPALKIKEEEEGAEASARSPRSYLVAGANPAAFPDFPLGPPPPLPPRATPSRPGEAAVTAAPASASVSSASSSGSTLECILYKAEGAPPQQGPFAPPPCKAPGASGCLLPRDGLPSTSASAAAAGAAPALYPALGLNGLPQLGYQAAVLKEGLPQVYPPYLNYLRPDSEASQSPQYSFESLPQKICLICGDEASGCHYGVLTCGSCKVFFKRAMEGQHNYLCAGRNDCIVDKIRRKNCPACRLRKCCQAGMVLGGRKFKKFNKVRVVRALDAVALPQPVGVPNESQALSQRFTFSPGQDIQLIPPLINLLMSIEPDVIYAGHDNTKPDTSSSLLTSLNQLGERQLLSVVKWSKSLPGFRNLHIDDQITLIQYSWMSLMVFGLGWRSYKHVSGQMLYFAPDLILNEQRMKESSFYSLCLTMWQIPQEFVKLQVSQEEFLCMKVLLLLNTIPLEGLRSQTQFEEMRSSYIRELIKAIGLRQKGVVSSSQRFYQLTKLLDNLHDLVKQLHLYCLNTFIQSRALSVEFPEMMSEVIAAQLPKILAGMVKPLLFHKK
Experimental: T47D cells were transiently transfixed with MTV-LUC (Cato et al., EMBO J., 9: 2237-40) and cultivated in the absence or the presence of 1 nM of R5020. In the test on a PR-mediated antagonism, the transiently transfixed T47D cells were treated with R5020 and in addition with increasing concentrations of compound A or RU486. After 24 hours, a luciferase test was performed.
In the test for a PR-mediated antagonism, the transiently transfixed T47D cells were treated with 0.1 nM of R5020 and increasing concentrations of compound A or […] (b).

[4] = tested on: EGF-receptor expression; assay: EGF-receptor expression in R5020-stimulated T47D cells; type: cell-based, human; settings: T47D cells stimulated with R5020

SMILES	antiproliferative action / block of estradiol-stimulated growth of T47D cells [1]	block of the R5020-caused increase of 125I-EGF binding to intact T47D cells [2]	block of the R5020-caused increase of 125I-EGF binding (Scatchard analysis) ([2]; T47D cells, 48 hours, 20 nM R5020 with 20 nM compound A, EGF 0.25 to 150 ng/ml, 2 hours at 4° C, FIG. 4)	block of transcriptional activity of PR (PR-mediated antagonism) [3]	block of R5020-increased EGF-receptor expression [4]
CC(=O)c1ccc([C@H]2C[C@@]3(C)[C@@H](CC[C@@]3(O)C(F)(F)C(F)(F)F)[C@@H]3CCC4=CC(=O)CCC4=C32)cc1 [compound A, 11β-(4-acetylphenyl)-17β-hydroxy-17α-(1,1,2,2,2-pentafluoroethyl)-estra-4,9-dien-3-one]	significant antiproliferative action at extremely small concentrations; also recorded: effectively blocked	blocks the increase of the EGF-binding; also recorded: could be prevented	block the increase of the EGF binding	could be blocked	blocked
CN(C)c1ccc([C@H]2C[C@]3(C)[C@@H](CC[C@]3(O)CCCO)[C@@H]3CCC4=CC(=O)CCC4=C32)cc1 [onapristone, 11β-[p-(dimethylamino)phenyl]-17α-hydroxy-17-(3-hydroxypropyl)-13α-estra-4,9-dien-3-one, reference compound]	–	considerably weaker effect; also recorded: less efficiently	–	–	–
